The source made the active and inactive calls.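 How the source made its calls: active means compounds giving half or more protection of infected cells from virus-caused growth loss, again on retest; inactive means the rest.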
Tested on: CEM cells HIV-1 protection, formazan growth assay
Experiment: NCI AIDS Antiviral Assay
Conditions: for IC50: measured here: growth of uninfected CEM cells
Procedure, shortened: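 CEM (human) cells, HIV-1 infected vs uninfected, 5-point dosing, formazan growth read-out. Retest threshold 50% protection.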

| SMILES | EC50 [µM] | IC50 [µM] | outcome |
| --- | --- | --- | --- |
| COc1cc(Nc2cc(Cl)cc(Cl)c2)nc(N)n1 | > 200 | 27.5 | – |
| COc1cc2cccc(N=Cc3cccc(OC)c3OC(C)C)c2cc1OC | > 13.2 | > 13.2 | – |
| NNC(=O)C(=O)N/N=C1\CCC(=O)CC1C(=O)CCC(=O)Nc1ccc(Cl)cc1 (configuration not stated) | > 32.4 | > 32.4 | – |
| ClCC1(CCl)COC1 | > 1620 | > 1620 | – |
| O=S1(=O)OCCCCO1 | > 1620 | > 1620 | – |
| CC(C(=O)OCc1ccccc1)(c1ccco1)N1C(=O)OC(c2ccccc2)C1c1ccccc1 (configuration not stated) | > 200 | 13.5 | – |
| COC(=O)[C@H](C)N1C(=O)N[C@@H](C(C)C)C1=O | 0.617 | > 200 | – |
| O=C(O)/C=C\C(=O)c1ccc(Cl)cc1 | > 324 | 58.9 | – |
| CCCCCC=C(c1cc(Cl)c(OC)c(C(=O)NC)c1)c1cc(Cl)c(OC)c(C(=O)NC)c1 | > 38 | 20.4 | – |
| Cc1[nH]c(=O)n2c(C)nnc2c1C(=O)Nc1cc(Cl)cc(Cl)c1 | – | – | inactive |
| CSc1nnc2nc[nH]n12 | > 200 | > 200 | – |
| COC(=O)c1c(C#C[Si](C)(C)C)c(C#C[Si](C)(C)C)c(C#C[Si](C)(C)C)c(C#C[Si](C)(C)C)c1C(=O)OC | > 50.1 | > 50.1 | – |
| CCOC(=O)C(=Cc1cccc([N+](=O)[O-])c1)C(=O)OCC | > 89.1 | 8.91 | – |
| COS(=O)(=O)OCCC(NC(=O)OCc1ccccc1)C(=O)OCc1ccccc1 (configuration not stated) | > 83.2 | > 83.2 | – |
| O=C1CC2COc3ccc(O)cc3C2=NN1c1ccccc1 (configuration not stated) | > 324 | 110 | – |
| CC(=O)C1C(=O)C(=O)N(c2ccc(Cl)c(Cl)c2)C1=O (configuration not stated) | > 200 | 129 | – |
| O=C(CCN1CCCCC1CO)Nc1ccc2c(c1)C(=O)c1ccc(NC(=O)CCN3CCCCC3CO)cc1C2=O (configuration not stated) | > 200 | 3.16 | – |
| COc1ccc(-c2cc(-c3cc(C)cc(Cl)c3O)nc3[nH]c(=S)[nH]c(=S)c23)cc1 | > 200 | 4.17 | – |
| CC1=C(C(=O)Nc2ccccc2C)C(c2ccc([N+](=O)[O-])cc2)C(C(=O)Nc2ccccc2C)=C(C)N1 | > 10.5 | > 10.5 | – |
| C#CCN(N=O)C(=O)NC(CCCCNC(=O)OCc1ccccc1)C(=O)OCc1ccccc1 (configuration not stated) | > 10.7 | > 10.7 | – |
| CC1(C(=O)O)CCC[C@@]2(C)C1CC[C@@]1(C)c3cocc3CCC21 (some centres not stated) | – | – | inactive |
| CCN(CC)CCN1CCN=c2c3cc(OC)ccc3n3cnc4ccc1c2c43 | > 2 | 0.0347 | – |

| SMILES | EC50 [µM] | IC50 [µM] | outcome |
| --- | --- | --- | --- |
| CC(=O)NS(=O)(=O)c1ccc(N=Cc2ccc3c(c2)OCO3)cc1 | > 200 | > 200 | – |
| Clc1ccc(NC(Nc2ccc(Cl)cc2)C(Cl)(Cl)Cl)cc1 | – | – | inactive |
| O=C(/C=C/c1ccccc1)c1cc2c(cc1O)OCO2 | > 70.8 | 5.25 | – |
| CC(C)OP(=O)(OC(C)C)C([CH2][Sn]([CH3])([CH3])[Cl])P(=O)(OC(C)C)OC(C)C | > 457 | 8.32 | – |
| Cc1cc2c(=O)c3ccccc3oc2c(C(=O)O)c1C | > 200 | > 200 | – |
| CSC1=N/C(=C\c2ccccc2)C(=O)N1CN1CCOCC1 | > 200 | 87.1 | – |
| COC(=O)[C@H](CO)NC(=O)CC/C(C)=C/c1ccccc1 | > 200 | 191 | – |
| CCCCC#COS(=O)(=O)c1ccc(C)cc1 | > 251 | 138 | – |
| Cc1cc(=O)[nH]c(NNC(C#N)c2cccc([N+](=O)[O-])c2)n1 (configuration not stated) | > 45.7 | > 45.7 | – |
| O=C1C(=O)C(CCCO)(CCCO)CCCCCCCCC1(CCCO)CCCO | > 200 | 102 | – |
| N#Cc1c(N)c2c(c(-c3ccccc3)c1-c1ccccc1)C(=O)N(NC(=O)c1ccccc1)C2=O | 75.9 | 102 | – |
| CCCOc1nc(N)c2cnn(C3CCCCO3)c2n1 (configuration not stated) | > 912 | 550 | – |
| CC1(C)c2ccccc2C(O)C12CCC(=O)CC2 (configuration not stated) | > 200 | > 200 | – |
| NC(N)=Nc1nn[nH]n1 | > 200 | > 200 | – |
| O=C(c1ccccc1)C(c1ccccc1)C1(O)C(=O)Nc2ccc(Br)cc21 (configuration not stated) | > 85.1 | > 85.1 | – |
| CCSc1c2cc(OC)ccc2nc2ccc(OC)cc12 | > 200 | 6.92 | – |
| O=c1c2cc([N+](=O)[O-])ccc2n2n1CCCCC2 | > 200 | > 200 | – |
| CC(/C=C/C1OC(=O)C=CC1C)=C\C(C)C/C=C/C(C)=C/C(C)C(=O)C(C)C(O)C(C)C/C(C)=C/C(=O)O (configuration not stated) | > 0.02 | 0.00631 | – |
| CCC1(c2ccc(N3C(=O)c4cccc5cc([N+](=O)[O-])cc(c45)C3=O)cc2)CCC(=O)NC1=O (configuration not stated) | > 151 | 13.5 | – |
| CC(C)(C)C1CCC2(CC1)CO2 (configuration not stated) | > 200 | 195 | – |
| COc1ccc(CC2(Cc3ccc(OC)cc3)CCOC2=O)cc1 | > 21.9 | > 21.9 | – |
| CSC1=NN(C(C)=O)C(C(OC(C)=O)C(OC(C)=O)C(OC(C)=O)C(COC(C)=O)OC(C)=O)S1 (configuration not stated) | – | – | inactive |

| SMILES | EC50 [µM] | IC50 [µM] | outcome |
| --- | --- | --- | --- |
| O=C(CCNNC(=O)c1ccncc1)NCc1ccccc1 | > 200 | > 200 | – |
| CCOC(=O)NN(C(=O)OCC)C(=C(C1=CCCCC1)N1CCOCC1)N(NC(=O)OCC)C(=O)OCC | > 200 | > 200 | – |
| O=C(O)Cc1cccc2c(=O)c(-c3ccccc3)coc12 | > 200 | > 200 | – |
| CC(=O)O[C@H]1CCC2[C@@H]3CCC4Nc5c(cnn5-c5ccccc5)C[C@]4(C)C3CC[C@@]21C (some centres not stated) | – | – | inactive |
| NC(Cc1ccc(S(=O)(=O)O)cc1)C(=O)NC(Cc1ccc(S(=O)(=O)O)cc1)C(=O)O (configuration not stated) | > 200 | > 200 | – |
| COc1ccc2[nH]c3c(c2c1)CCNC3CC(C)CCC=C(C)C (configuration not stated) | > 100 | 6.31 | – |
| CCCc1cc(=O)[nH]c(SCC(=O)O)n1 | > 200 | > 200 | – |
| Cc1nccc2c(C)c3sc4ccccc4c3cc12 | > 91.2 | 2.14 | – |
| CN1CC(C)(C)C(=O)c2ccccc21 | > 200 | > 200 | – |
| COc1cc2c(c3c1C1Oc4cc(OCc5ccccc5)c(O)cc4C1C(C)(C)O3)CCC(C)(C)O2 (configuration not stated) | > 200 | 36.3 | – |
| CCCCCCCCCC(=O)Oc1c2ccoc2cc2oc(=O)ccc12 | > 63.1 | > 63.1 | – |
| CCOC(=O)/C=C/c1cccc(OC)c1 | > 158 | > 158 | – |
| CN(C)CCn1c(=O)c2ccc(NCCN3CCNCC3)c3c(=O)c4ccccc4n(c1=O)c23 | > 200 | 0.0631 | – |
| Nc1c(S(=O)(=O)O)[nH]c(=O)[nH]c1=O | > 200 | > 200 | – |
| O=S(=O)(N=NC=C1c2ccccc2N(O)c2ccccc21)c1ccc(Cl)cc1 | – | – | inactive |
| N#Cc1nc(COCc2ccccc2)oc1N | > 200 | 95.5 | – |
| Nc1nc(=S)c2c(ncn2CC(O)CO)[nH]1 (configuration not stated) | 363 | 525 | – |
| COc1cc(C(=O)N(C(=S)OCc2ccccn2)c2ccccc2)cc(OC)c1OC | > 200 | 74.1 | – |
| CCc1ccccc1C(C(=O)NC1CN2CCC1CC2)c1ccsc1 (configuration not stated) | > 200 | 61.7 | – |
| CN(C)CCNCCCNc1c2ccccc2nc2cccc([N+](=O)[O-])c12 | > 2 | 0.0129 | – |
| COC(=O)C12CC3CC(CC(NC(=O)C(Cc4ccccc4)NC(=O)CN)(C3)C1)C2 (configuration not stated) | > 200 | 110 | – |
| CC1(C)C(=O)/C=C\C(=O)C(C)(C)C(=O)/C=C\C(=O)C(C)(C)C(=O)/C=C\C(=O)C(C)(C)C(=O)/C=C\C1=O | – | – | inactive |

| SMILES | EC50 [µM] | IC50 [µM] | outcome |
| --- | --- | --- | --- |
| O=c1[nH]c(=O)n(C2OC(CO)CC2F)cc1F (configuration not stated) | > 200 | > 200 | – |
| COc1cc2c(cc1C1=NC(C)(C)CO1)OCO2 | > 1000 | > 1000 | – |
| Nc1nc(Cl)c(Cl)c(NCC2(O)CCC2)n1 | > 200 | 20.9 | – |
| CCC[CH2][Sn]1([CH2]CCC)[O]C(=O)c2cccnc2[O]1 | > 97.7 | 0.0977 | – |
| CC1(C)CC(=O)c2c(oc3cc(O)c(O)cc23)C1 | – | – | inactive |
| c1ccc(-c2nc3cc4c(cc3n3cccc23)oc2ccccc24)cc1 | > 100 | 85.1 | – |
| COC1/C=C\C=C(/C)C(=O)NC2=CC(=O)C(NCCCl)=C(CC(C)CC(OC)C(O)C(C)/C=C(/C)C1OC(N)=O)C2=O (configuration not stated) | – | – | inactive |
| CCOC(=O)Oc1cc2ccsc2c2c1c1ccccc1n2C(=O)OCC | > 200 | 35.5 | – |
| COc1cc2c(c(OC)c1OC)-c1ccc(OC)c(=O)cc1C(NC(=O)COc1ccccc1)CC2 (configuration not stated) | > 0.2 | 0.00251 | – |
| O=C(O)CN1CCNCCN(CC(=O)O)CCNCC1 | > 200 | 3.63 | – |
| CC1(C)CN=CC(C)(OCc2ccccc2)C(=O)NC(C)(C)CN=CC(C)(OCc2ccccc2)C(=O)N1 (configuration not stated) | > 7.24 | > 7.24 | – |
| CN(C)CCNc1ccc2c(=O)n(CCN(C)C)c(=O)n3c4ccc(N)cc4c(=O)c1c23 | > 200 | 0.0631 | – |
| COc1cc(Br)c(C=Nc2cccc3cc(OC)c(OC)cc23)cc1OC | > 31.6 | > 31.6 | – |
| OC(C1CCCCCCCCCC1)C(O)C1CCCCCCCCCC1 (configuration not stated) | > 200 | > 200 | – |
| COc1ccc2c(c1)OC(C)(C)C1c3cc(O)c(OCc4ccccc4)cc3OC21 (configuration not stated) | > 200 | 16.6 | – |
| CCOC(=O)C1(C(=O)OCC)C[C@H](C)[C@](C)(O)C1 | > 200 | > 200 | – |
| Cc1c(C(=O)C/C(=N\O)C(=O)Nc2cc(Cl)c(Cl)cc2Cl)[n+](=O)c2ccccc2n1[O-] | > 14.8 | > 14.8 | – |
| COc1cccc(NC(=O)CC(=O)N2N=C(C)C(N=Nc3ccc(S(=O)(=O)c4ccc(N=NC5C(=O)N(C(=O)CC(=O)Nc6cccc(OC)c6)N=C5C)cc4)cc3)C2=O)c1 (configuration not stated) | 178 | > 200 | – |
| O=C1c2ccccc2-c2nc3ccccc3nc21 | > 6.17 | > 6.17 | – |
| O=C1CCCN1C(=O)CS(=O)(=O)c1ccccc1 | > 200 | > 200 | – |
| O=c1oc2ccccc2c(O)c1C(c1ccccc1)c1c(O)c2ccccc2oc1=O | > 200 | 33.1 | – |
| N#CCOc1ccc(/C=C/C(=O)c2ccc(Cl)cc2)cc1 | > 200 | 17.4 | – |

Source: PubChem BioAssay AID179 (DTP/NCI, 2004)
